Source: US9278950B2, “Bicyclic aromatic carboxamide compounds useful as Pim kinase inhibitors” (Incyte Corporation, priority 2013, dated 2016)

Legend:
Assay type in all cases: biochemical
[1] = molecular target: T1, Pim2 (Homo sapiens, UniProt Q9P1W9); experiment: Pim-2 kinase assay (Pim enzyme assays, Example A); conditions: 1 mM ATP; read-out: Pim2 IC50
T1 construct: purchased Invitrogen PV3649
Description: Pim-2 kinase assay—20 μL reactions were run in white 384 well polystyrene plates dotted with 0.8 μL compound/DMSO in the assay buffer (50 mM Tris, pH 7.5, 0.01% Tween-20, 5 mM mgCl2, 0.01% BSA, 5 mM DTT), containing 0.05 μM Fluorescein-labeled CREBtide peptide substrate (Invitrogen PV3508), 1 mM ATP, and 1 nM enzyme (Invitrogen PV3649) for 2 h at 25° C. Reactions were stopped by addition of 10 μL TR-FRET Dilution Buffer (Invitrogen PV3574) with 30 mM EDTA and 1.5 nM LanthaScreen Tb-CREB pSer133 antibody (Invitrogen PV3566). After 30 min. incubation at room temperature, plates were read on a PHERAstar FS plate reader (BMG Labtech).

[2] = molecular target: T2, Pim-3 (Homo sapiens, UniProt Q86V86); experiment: Pim-3 kinase assay (Pim enzyme assays, Example A); conditions: 1 mM ATP; read-out: Pim3 IC50
T2 construct: purchased Millipore 14-738
Description: (§1) Pim-1 and Pim-3 kinase assays-20 μL reactions were run in white 384 well polystyrene plates dotted with 0.8 μL compound/DMSO in the assay buffer (50 mM Tris, pH 7.5, 0.01% Tween-20, 5 mM mgCl2, 0.01% BSA, 5 mM DTT), containing 0.05 μM Biotin-labeled BAD peptide substrate (AnaSpec 62269), 1 mM ATP, and […] (Pim-1, Invitrogen PV3503) or […] (Pim-3, Millipore 14-738) enzyme for 1 h at 25° C. Reactions were stopped by addition of 10 μL STOP Buffer (150 mM Tris, pH=7.5, 150 mM NaCl, 75 mM EDTA, 0.01% Tween-20, 0.3% BSA,) supplemented with Phospho-Bad (Ser 12) Antibody (Cell Signaling 9291) diluted 666-fold, and Streptavidin donor beads (PerkinElmer 6760002) along with Protein-A acceptor beads (PerkinElmer 6760137) at 15 μg/mL each. Supplementation of the STOP buffer with beads and stopping the reactions were done under reduced light. Prior to the stopping reactions STOP buffer with beads was preincubated for 1 h in the dark at room temperature. After stopping the reactions, plates were incubated for 1 h in the dark at room temperature before reading on a PHERAstar FS plate reader (BMG Labtech) under reduced light.

[3] = molecular target: T3, Pim-1 (Homo sapiens, UniProt P11309); experiment: Pim-1 kinase assay (Pim enzyme assays, Example A); conditions: 1 mM ATP; read-out: Pim1 IC50
T3 construct: purchased Invitrogen PV3503
T3 sequence (P11309 whole entry): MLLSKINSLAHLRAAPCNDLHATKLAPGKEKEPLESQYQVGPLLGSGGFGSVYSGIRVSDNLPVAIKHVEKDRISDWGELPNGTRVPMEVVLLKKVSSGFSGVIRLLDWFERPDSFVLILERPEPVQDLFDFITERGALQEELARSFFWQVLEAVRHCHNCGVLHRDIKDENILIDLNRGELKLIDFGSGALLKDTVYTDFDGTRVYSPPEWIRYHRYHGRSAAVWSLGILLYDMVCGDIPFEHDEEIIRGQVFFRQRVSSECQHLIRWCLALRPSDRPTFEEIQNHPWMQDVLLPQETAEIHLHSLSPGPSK
Description: as §1

T1 sequence (Q9P1W9 whole entry): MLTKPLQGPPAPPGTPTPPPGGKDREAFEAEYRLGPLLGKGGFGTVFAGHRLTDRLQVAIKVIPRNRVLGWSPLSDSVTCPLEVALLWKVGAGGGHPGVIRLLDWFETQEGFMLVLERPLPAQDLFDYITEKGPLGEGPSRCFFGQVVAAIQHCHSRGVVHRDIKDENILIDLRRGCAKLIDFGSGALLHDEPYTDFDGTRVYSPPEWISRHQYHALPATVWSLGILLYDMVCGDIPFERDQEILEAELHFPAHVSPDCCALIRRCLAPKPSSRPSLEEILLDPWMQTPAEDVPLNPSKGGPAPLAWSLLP

Row | Structure (SMILES) | IC50 [1] [µM] | IC50 [2] [µM] | IC50 [3] [µM]
1 | Nc1cc2ccc(C3CCNCC3)cc2nc1C(=O)Nc1cnccc1N1CCC[C@H](N)C1 [Example 1, 3-Amino-N-{4-[(3S)-3-aminopiperidin-1-yl]pyridin-3-yl}-7-piperidin-4-ylquinoline-2-carboxamide] | 0.1 to 1 | ≤ 0.1 | ≤ 0.1
2 | Nc1cc2ccc(Br)cc2nc1C(=O)Nc1cnccc1N1CCC[C@H](N)C1 [Example 12, 3-Amino-N-{4-[(3S)-3-aminopiperidin-1-yl]pyridin-3-yl}-7-bromoquinoline-2-carboxamide] | 0.1 to 1 | ≤ 0.1 | ≤ 0.1
3 | CN(C)Cc1ccc2cc(N)c(C(=O)Nc3cnccc3N3CCC[C@H](N)C3)nc2c1 [Example 20, 3-Amino-N-{4-[(3S)-3-aminopiperidin-1-yl]pyridin-3-yl}-7-[(dimethylamino)methyl]quinoline-2-carboxamide] | > 2 | ≤ 0.1 | ≤ 0.1
4 | Nc1cc2ccc(C3CCOCC3)cc2nc1C(=O)Nc1cnccc1N1CCC[C@H](N)C1 [Example 2, 3-Amino-N-{4-[(3S)-3-aminopiperidin-1-yl]pyridin-3-yl}-7-(tetrahydro-2H-pyran-4-yl)quinoline-2-carboxamide] | 0.1 to 1 | ≤ 0.1 | ≤ 0.1
5 | Nc1cc2ccc(CN3CCOCC3)cc2nc1C(=O)Nc1cnccc1N1CCC[C@H](N)C1 [Example 21, 3-Amino-N-{4-[(3S)-3-aminopiperidin-1-yl]pyridin-3-yl}-7-(morpholin-4-ylmethyl)quinoline-2-carboxamide] | 0.1 to 1 | ≤ 0.1 | ≤ 0.1
6 | C[C@H]1CN(c2ccncc2NC(=O)c2nc3cc(N4CCOCC4)ccc3cc2N)C[C@@H](N)[C@@H]1O [Example 33, 3-Amino-N-{4-[(3R,4R,5S)-3-amino-4-hydroxy-5-methylpiperidin-1-yl]pyridin-3-yl}-7-morpholin-4-ylquinoline-2-carboxamide] | 0.1 to 1 | ≤ 0.1 | ≤ 0.1
7 | CCc1ccc2cc(N)c(C(=O)Nc3cnc4c(c3N3CCC[C@H](N)C3)CCO4)nc2c1 [Example 24, (S)-3-Amino-N-(4-(3-aminopiperidin-1-yl)-2,3-dihydrofuro[2,3-b]pyridin-5-yl)-7-ethylquinoline-2-carboxamide] | 0.1 to 1 | ≤ 0.1 | ≤ 0.1
8 | CCc1ccc2cc(N)c(C(=O)Nc3cnccc3N3C[C@@H](N)[C@H](O)[C@@H](C)C3)nc2c1 [Example 29, 3-Amino-N-{4-[(3R,4R,5S)-3-amino-4-hydroxy-5-methylpiperidin-1-yl]pyridin-3-yl}-7-ethylquinoline-2-carboxamide] | ≤ 0.1 | ≤ 0.1 | ≤ 0.1
9 | NC(=O)c1cccc(F)c1-c1ccc2cc(N)c(C(=O)Nc3cnccc3N3CCC[C@H](N)C3)nc2c1 [Example 8, 3-Amino-7-[2-(aminocarbonyl)-6-fluorophenyl]-N-{4-[(3S)-3-aminopiperidin-1-yl]pyridin-3-yl}quinoline-2-carboxamide] | > 2 | ≤ 0.1 | > 0.04
10 | Nc1cc2ccc(-c3c(F)cccc3F)cc2nc1C(=O)Nc1cnccc1N1CCC[C@H](N)C1 [Example 3, 3-Amino-N-{4-[(3S)-3-aminopiperidin-1-yl]pyridin-3-yl}-7-(2,6-difluorophenyl)quinoline-2-carboxamide] | 0.1 to 1 | ≤ 0.1 | ≤ 0.1
11 | CCc1ccc2cc(N)c(C(=O)Nc3cncc(C)c3N3CCC[C@H](N)C3)nc2c1 [Example 30, 3-Amino-N-{4-[(3S)-3-aminopiperidin-1-yl]-5-methylpyridin-3-yl}-7-ethylquinoline-2-carboxamide] | ≤ 0.1 | ≤ 0.1 | ≤ 0.1

Now from value to molecule:

Row | IC50 [1] [µM] | IC50 [2] [µM] | IC50 [3] [µM] | Structure (SMILES)
12 | 0.1 to 1 | ≤ 0.1 | ≤ 0.1 | CN1CCN(c2ccc3cc(N)c(C(=O)Nc4cnccc4N4C[C@@H](N)C[C@@H](C(F)(F)F)C4)nc3c2)CC1 [Example 37, 3-Amino-N-{4-[(3S,5R)-3-amino-5-(trifluoromethyl)piperidin-1-yl]pyridin-3-yl}-7-(4-methylpiperazin-1-yl)quinoline-2-carboxamide]
13 | 0.1 to 1 | ≤ 0.1 | ≤ 0.1 | CCc1ccc2cc(N)c(C(=O)Nc3cnccc3N3C[C@@H](N)[C@@H](n4ccnn4)[C@@H](C)C3)nc2c1 [Example 57, 3-Amino-N-{4-[(3R,4S,5S)-3-amino-5-methyl-4-(1H-1,2,3-triazol-1-yl)piperidin-1-yl]pyridin-3-yl}-7-ethylquinoline-2-carboxamide]
14 | ≤ 0.1 | ≤ 0.1 | ≤ 0.1 | C[C@H]1CN(c2ccncc2NC(=O)c2nc3cc(C4CCN(C)CC4)ccc3cc2N)C[C@@H](N)[C@@H]1O [Example 42, 3-Amino-N-{4-[(3R,4R,5S)-3-amino-4-hydroxy-5-methylpiperidin-1-yl]pyridin-3-yl}-7-(1-methylpiperidin-4-yl)quinoline-2-carboxamide]
15 | 0.1 to 1 | ≤ 0.1 | ≤ 0.1 | C[C@@H]1C[C@H](N)CN(c2ccncc2NC(=O)c2nc3cc(N4CCNC(=O)C4)ccc3cc2N)C1 [Example 47, 3-Amino-N-{4-[(3S,5R)-3-amino-5-methylpiperidin-1-yl]pyridin-3-yl}-7-(3-oxopiperazin-1-yl)quinoline-2-carboxamide]
16 | 1 to 10 | ≤ 0.1 | ≤ 0.1 | COC(=O)N[C@@H]1[C@H](N)CN(c2ccncc2NC(=O)c2nc3cc(N4CCOCC4)ccc3cc2N)C[C@@H]1C [Example 59, Methyl [(3R,4S,5S)-3-amino-1-(3-{[(3-amino-7-morpholin-4-ylquinolin-2-yl)carbonyl]amino}pyridin-4-yl)-5-methylpiperidin-4-yl]carbamate]
17 | ≤ 0.1 | ≤ 0.1 | ≤ 0.1 | C[C@H]1CN(c2ccncc2NC(=O)c2nc3cc(C4CCOCC4)ccc3cc2N)C[C@@H](N)[C@@H]1O [Example 41, 3-Amino-N-{4-[(3R,4R,5S)-3-amino-4-hydroxy-5-methylpiperidin-1-yl]pyridin-3-yl}-7-(tetrahydro-2H-pyran-4-yl)quinoline-2-carboxamide]
18 | > 2 | ≤ 0.1 | ≤ 0.1 | C[C@H]1CN(c2ccncc2NC(=O)c2nc3cc(N4CCOCC4)ccc3cc2N)C[C@@H](N)[C@H]1n1ccnn1 [Example 55, 3-Amino-N-{4-[(3R,4S,5S)-3-amino-5-methyl-4-(1H-1,2,3-triazol-1-yl)piperidin-1-yl]pyridin-3-yl}-7-morpholin-4-ylquinoline-2-carboxamide]
19 | 0.1 to 1 | ≤ 0.1 | ≤ 0.1 | C[C@@H]1C[C@H](N)CN(c2ccncc2NC(=O)c2nc3cc(N4CCN(C)C(=O)C4)ccc3cc2N)C1 [Example 46, 3-Amino-N-{4-[(3S,5R)-3-amino-5-methylpiperidin-1-yl]pyridin-3-yl}-7-(4-methyl-3-oxopiperazin-1-yl)quinoline-2-carboxamide]
20 | 0.1 to 1 | ≤ 0.1 | ≤ 0.1 | Nc1cc2ccc(N3CCOCC3)cc2nc1C(=O)Nc1cnccc1N1C[C@@H](N)C[C@@H](C(F)(F)F)C1 [Example 35, 3-Amino-N-{4-[(3S,5R)-3-amino-5-(trifluoromethyl)piperidin-1-yl]pyridin-3-yl}-7-morpholin-4-ylquinoline-2-carboxamide]
